Measured values reported in patent US10738281B2, “Reprogramming cells” (The Scripps Research Institute, priority 2010, dated 2020).

Tests used:
[1] = system: Human Umbilical Vein Endothelial Cells (HUVECs); test: Reprogramming of four factor-transduced HUVECs using metabolism modulating compounds; details: four factor (Klf, Sox, Myc, Oct)-transduced HUVECs, 20,000 cells per well, three weeks; DNP 1 μM, NOG 1 μM, QC 1 μM, OA 10 μM, F2,6P 10 mM
Description: (§1) Four factor (Klf, Sox, Myc, and Oct)-transduced HUVECs were seeded at a density of 20,000 transduced cells per well, treated with metabolism modulating compounds for three weeks and TRA-1-81 positive colonies were counted. F2,6P, 10 mM Fructose 2,6-bisphosphate; F6P, 10 mM Fructose 6-phosphate; 6-AN, 10 μM 6-aminonicotinamide; OA, 10 μM oxalate; DNP, 1 μM 2,4-dinitrophenol; NOG, 1 μM N-oxalylglycine; QC, 1 μM Quercetin; 2-HA, 10 μM 2-Hydroxyglutaric acid; NA, 10 μM nicotinic acid; DMSO was used as a control.

[2] = system: Neonatal Human Epidermal Keratinocytes (NHEKs); test: Reprogramming of transduced NHEKs to iPSCs, TRA-1-81 positive colonies; details: for reprogramming of NHEKs, TRA-1-81 positive colonies (in words): three factor (Klf, Sox, Oct)-transduced NHEKs, 100,000 cells per well, four weeks, 2-DG 10 mM
Description: The culture was split by Accutase (Millipore) and treated with 1 μM Thiazovivin (Stemgent) in the first day after splitting.

[3] = system: NHEKs; test: Lactate production in the medium as index of glycolysis (Lactate Assay Kit); details: NHEKs treated 8 d with PS48, PS48 and UCN-01, or PS48 and 2-DG
Description: as §1

[4] = system: GLUT1, HK2, PFK1 and LDHA; test: Expression of key glycolytic genes after treatment; details: PS48 treatment
Description: as §1

O=C(O)CNC(=O)C(=O)O [N-oxalylglycine]
effect on reprogramming, TRA-1-81 positive colonies (in words) [1]: enhance reprogramming

CN[C@@H]1C[C@H]2O[C@@](C)([C@@H]1OC)n1c3ccccc3c3c4c(c5c6ccccc6n2c5c31)C(=O)N[C@@H]4O [UCN-01]
reprogramming of NHEKs, TRA-1-81 positive colonies (in words) [2]: inhibited reprogramming process
glycolysis, lactate production in the medium (in words) [3]: inhibited glycolysis

O=CC[C@@H](O)[C@H](O)[C@H](O)CO [2-Deoxy-D-glucose]
reprogramming of NHEKs, TRA-1-81 positive colonies (in words) [2]: inhibited reprogramming process
glycolysis, lactate production in the medium (in words) [3]: inhibited glycolysis

O=c1c(O)c(-c2ccc(O)c(O)c2)oc2cc(O)cc(O)c12 [Quercetin, 3,3′,4′,5,7-pentahydroxyflavone]
effect on reprogramming, TRA-1-81 positive colonies (in words) [1]: corresponding consistent effects on reprogramming

O=[N+]([O-])c1ccc(O)c([N+](=O)[O-])c1 [2,4-dinitrophenol]
effect on reprogramming, TRA-1-81 positive colonies (in words) [1]: enhance reprogramming

O=C(O)C(=O)O [oxalate]
effect on reprogramming, TRA-1-81 positive colonies (in words) [1]: inhibit reprogramming

O=C(O)/C=C(/CCc1ccc(Cl)cc1)c1ccccc1 [PS48, (Z)-5-(4-Chlorophenyl)-3-phenylpent-2-enoic acid]
enhancement of reprogramming efficiency ([2]; NHEKs transduced with OK (OCT4 + KLF4), treated with 0.5 μM PD0325901 and 0.5 μM A-83-01): about fifteen
reprogramming of NHEKs, TRA-1-81 positive colonies (in words) [2]: enhanced reprogramming
glycolysis, lactate production in the medium (in words) [3]: facilitated/activated a metabolic switch to glycolysis
expression of key glycolytic genes GLUT1, HK2, PFK1 and LDHA (in words) [4]: up-regulated

CCCC(=O)[O-].[Na+] [NaB, sodium butyrate]
generation of iPSCs under OK condition (in words) ([2]; NHEKs, OCT4 + KLF4, 0.25 mM NaB compared with 0.5 mM VPA): much more reliable and efficient than the previously reported 0.5 mM VPA

O=P(O)(O)OC[C@H]1O[C@@](CO)(OP(=O)(O)O)[C@@H](O)[C@@H]1O [Fructose 2,6-bisphosphate]
effect on reprogramming, TRA-1-81 positive colonies (in words) [1]: corresponding consistent effects on reprogramming
